Results from patent publication US20040072825A1, “2-(2-(4-((2r)-2-methyl-3-(10h-phenothiazin-10-yl)propyl)-1-piperazinyl)-ethoxy) ethanol, process for the preparation thereof, pharmaceutical compositions containing said compound and therapeutic uses thereof” (priority 2000, published 2004).

Columns and labels:
[1] = system: postoperative nausea and vomiting; conditions: prophylactic administration, analgesia with morphine; cited from earlier work
[2] = target: T1, D4.4 dopaminergic receptor (Homo sapiens, UniProt P21917); experiment: Radioligand binding, D4.4 receptor (CHO cell culture)
T1 construct: expressed in transfected cells; host or cells: CHO
T1 sequence (P21917 1-419): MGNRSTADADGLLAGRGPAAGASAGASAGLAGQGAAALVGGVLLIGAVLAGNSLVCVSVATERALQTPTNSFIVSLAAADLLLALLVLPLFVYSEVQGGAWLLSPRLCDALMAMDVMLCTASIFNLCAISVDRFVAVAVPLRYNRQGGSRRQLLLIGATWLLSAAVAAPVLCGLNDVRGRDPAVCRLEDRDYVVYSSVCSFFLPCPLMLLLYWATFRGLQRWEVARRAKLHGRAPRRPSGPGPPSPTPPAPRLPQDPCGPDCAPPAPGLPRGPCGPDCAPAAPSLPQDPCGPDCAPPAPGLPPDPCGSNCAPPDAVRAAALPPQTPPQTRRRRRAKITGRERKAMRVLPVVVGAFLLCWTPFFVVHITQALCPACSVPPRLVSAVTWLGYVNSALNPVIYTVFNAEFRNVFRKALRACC
Protocol: (§1) The test substances, biological materials and experimental protocols used in the study are described in Moguilevsky N. et al. (1994) Eur. J. […] List S. J. (1981) Proc. Natl. Acad. Sci.78:2620-2624; MacKenzie R. G. et al. (1994) Eur. J. Pharmacol. 266:79-85; Van Tol et al., (1992) Nature, 358:149-152. […] Filtermat A, Walac), then washed with cold buffer using a filtration unit ‘Cell Harvester’ (Brandel, Packard or Tomtec). The bound radioactivity is measured using a scintillation liquid (Formula 989 or Microscint 0, Packard) or solid (Meltilex B/HS, Wallac), and a scintillation counter (LS 6000, Beckman; Topcount, Packard; Betaplate, Wallac). […] Each experiment was performed in duplicate (n=2). In parallel, a positive control (concentration of reference substance causing 50% inhibition of radioligand specific binding) is tested to validate the assay. For competition experiments, membranes are incubated in the buffer containing the radioligand and increasing concentrations of unlabeled test substances. Each binding assay is validated with a reference compound tested in parallel. […] where BO and BI represent the total binding in the absence and presence of the unlabelled drug (in dpm/assay) and NSB is the amount of non specific binding (in dpm/assay). Analysis of raw data and pIC50 calculation is performed by computerized non-linear curve fitting methods using a set of equations describing competitive interactions between labelled and unlabeled ligands which obey the law of mass action. IC50 represents the concentration of the test substance inhibiting 50% of the specific binding of the radioligand. It is determined in competitive binding experiments by measuring the binding of a single concentration of a radioactive ligand at equilibrium with various concentrations of the unlabeled test substance. pIC50=−log IC50

[3] = target: human H1 histaminic receptor (Homo sapiens, UniProt P35367); experiment: Radioligand binding, human H1 receptor (CHO cell culture)
Sequence of human H1 histaminic receptor (P35367 whole entry): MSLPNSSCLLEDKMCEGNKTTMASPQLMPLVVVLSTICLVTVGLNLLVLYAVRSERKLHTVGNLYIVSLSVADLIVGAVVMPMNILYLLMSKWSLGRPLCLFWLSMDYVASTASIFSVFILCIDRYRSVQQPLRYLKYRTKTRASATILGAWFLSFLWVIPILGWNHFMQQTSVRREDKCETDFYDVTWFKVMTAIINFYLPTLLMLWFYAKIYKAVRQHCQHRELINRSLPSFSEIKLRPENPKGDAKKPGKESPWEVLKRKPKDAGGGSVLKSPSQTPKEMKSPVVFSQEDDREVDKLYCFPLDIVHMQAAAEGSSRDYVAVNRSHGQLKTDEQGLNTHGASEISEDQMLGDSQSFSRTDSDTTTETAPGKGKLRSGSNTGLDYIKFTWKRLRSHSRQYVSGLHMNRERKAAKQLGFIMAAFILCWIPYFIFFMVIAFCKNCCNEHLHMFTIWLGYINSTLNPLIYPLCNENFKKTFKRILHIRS
Protocol: as §1

[4] = target: T2, human D3 dopaminergic receptor (Homo sapiens, UniProt P35462); experiment: Radioligand binding, human D3 receptor (CHO cell culture)
T2 construct: expressed in transfected cells; host or cells: CHO
T2 sequence (P35462 whole entry): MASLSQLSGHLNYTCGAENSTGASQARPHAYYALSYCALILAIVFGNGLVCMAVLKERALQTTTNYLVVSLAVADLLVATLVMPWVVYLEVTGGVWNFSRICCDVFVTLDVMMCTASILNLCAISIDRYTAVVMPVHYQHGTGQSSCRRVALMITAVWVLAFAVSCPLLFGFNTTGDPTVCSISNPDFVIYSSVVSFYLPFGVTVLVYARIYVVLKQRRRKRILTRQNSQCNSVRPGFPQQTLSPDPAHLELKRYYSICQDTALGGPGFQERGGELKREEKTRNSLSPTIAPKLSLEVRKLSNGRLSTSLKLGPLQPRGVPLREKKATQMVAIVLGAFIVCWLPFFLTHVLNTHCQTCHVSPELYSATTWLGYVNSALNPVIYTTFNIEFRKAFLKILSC
Protocol: as §1

[5] = target: T3, 5-HT3 receptor (Homo sapiens, UniProt P46098); experiment: Radioligand binding, 5-HT3 receptor; conditions: mean of duplicate, read-out: percent inhibition of control specific binding
T3 sequence (P46098 24-478): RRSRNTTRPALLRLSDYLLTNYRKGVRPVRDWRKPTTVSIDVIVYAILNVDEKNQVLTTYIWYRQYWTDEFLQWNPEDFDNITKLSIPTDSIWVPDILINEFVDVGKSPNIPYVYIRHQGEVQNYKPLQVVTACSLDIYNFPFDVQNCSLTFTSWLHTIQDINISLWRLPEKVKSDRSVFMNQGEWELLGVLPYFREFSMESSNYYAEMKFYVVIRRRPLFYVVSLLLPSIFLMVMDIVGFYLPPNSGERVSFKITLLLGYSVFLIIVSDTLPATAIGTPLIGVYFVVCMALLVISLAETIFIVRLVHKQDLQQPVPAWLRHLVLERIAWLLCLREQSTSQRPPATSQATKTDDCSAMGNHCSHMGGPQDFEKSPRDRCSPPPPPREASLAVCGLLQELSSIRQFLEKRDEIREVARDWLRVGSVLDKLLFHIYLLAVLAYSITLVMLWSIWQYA

[6] = target: T4, 5-HT2 serotonergic receptor (Rattus norvegicus, UniProt P14842); experiment: Radioligand binding, 5-HT2 receptor (rat cerebral cortex)
T4 construct: the rat cerebral cortex (5-HT2 receptor); from tissue; host or cells: rat cerebral cortex
T4 sequence (P14842 whole entry): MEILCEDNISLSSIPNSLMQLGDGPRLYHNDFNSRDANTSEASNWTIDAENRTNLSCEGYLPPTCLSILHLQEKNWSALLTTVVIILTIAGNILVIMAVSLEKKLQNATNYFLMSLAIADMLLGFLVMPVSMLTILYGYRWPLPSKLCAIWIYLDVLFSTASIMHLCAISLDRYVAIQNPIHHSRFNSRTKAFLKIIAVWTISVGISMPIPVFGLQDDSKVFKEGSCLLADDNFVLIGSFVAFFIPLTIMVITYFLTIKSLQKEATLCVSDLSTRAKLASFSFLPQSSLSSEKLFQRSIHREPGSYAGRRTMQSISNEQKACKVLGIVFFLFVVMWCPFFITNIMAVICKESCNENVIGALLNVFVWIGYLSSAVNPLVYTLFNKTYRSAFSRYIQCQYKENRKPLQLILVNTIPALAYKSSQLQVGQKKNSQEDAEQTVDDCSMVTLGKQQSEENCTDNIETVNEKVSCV
Protocol: as §1

## CC(CN1CCN(CCOCCO)CC1)CN1c2ccccc2Sc2ccccc21 (racemic) [Dixyrazine, 2-(2-(4-(2-methyl-3-(10H-phenothiazin-10-yl)propyl)-1-piperazinyl)ethoxy)ethanol, reference compound]
[1]
  incidence and severity of vomiting (in words): reduces the incidence and severity of vomiting
[2]; D4.4, 0.1 μM, mean of duplicate, read-out: percent inhibition of control specific binding
  inhibition at 0.1 µM: 24%
[2]; D4.4, 10 μM, mean of duplicate, 10 µM
  percent inhibition of control specific binding: 104%
[2]; D4.4, 10 μM, mean of duplicate, read-out: percent inhibition of control specific binding
  inhibition at 10 µM: > 90%
[2]; D4.4, competitive binding, read-out: Affinity pIC50 (-log IC50) (converted)
  IC50: 398 nM
[3]; H1, 10 μM, mean of duplicate, 10 µM
  percent inhibition of control specific binding: 100%
[3]; H1, 10 μM, mean of duplicate, read-out: percent inhibition of control specific binding
  inhibition at 10 µM: > 90%
[3]; H1, competitive binding, read-out: Affinity pIC50 (-log IC50) (converted)
  IC50: 0.501 nM
[4]; D3, 0.1 μM, mean of duplicate, read-out: percent inhibition of control specific binding
  inhibition at 0.1 µM: 84%
[4]; D3, 10 μM, mean of duplicate, 10 µM
  percent inhibition of control specific binding: 100%
[4]; D3, 10 μM, mean of duplicate, read-out: percent inhibition of control specific binding
  inhibition at 10 µM: > 90%
[4]; D3, competitive binding, read-out: Affinity pIC50 (-log IC50) (converted)
  IC50: 50.1 nM
[5]; 5-HT3, 0.1 μM
  inhibition at 0.1 µM: < 10%
[5]; 5-HT3, 10 μM
  inhibition at 10 µM: 26%
[6]; 5-HT2, 10 μM, mean of duplicate, 10 µM
  percent inhibition of control specific binding: 102%
[6]; 5-HT2, competitive binding, read-out: Affinity pIC50 (-log IC50) (converted)
  IC50: 6.31 nM
[6]; read-out: percent inhibition of control specific binding, 5-HT2, 10 μM, mean of duplicate
  inhibition at 10 µM: > 90%
